Values after ≈ are worked out from the molar mass of the structure shown.

What all share (assay): ≥ marks a high value that may be exact or a test limit, other limits are often not marked, values filed in µg/mL are converted to µM
In assay [1] the test system is Bacillus subtilis VKM B-501.
Assay [2] has as its system Saccharomyces cerevisiae Y190.
For assay [3], the system named is Arthrobacter globiformis VKM Ac-1112.
Assay [4] relates to Pseudomonas aeruginosa PAO1.
Assay [5] relates to Escherichia coli DH5alpha.
The subject of a further assay is Escherichia coli MH1.

Take `CC[C@H](C)[C@H](NC(=O)[C@H](Cc1ccc(O)cc1)NC(=O)[C@H](CCC(N)=O)NC(=O)[C@H](CCCCN)NC(=O)[C@H](CC(C)C)NC(=O)[C@H](CCCCN)NC(=O)[C@H](CCC(=O)O)NC(=O)CNC(=O)[C@H](CCSC)NC(=O)[C@H](CO)NC(=O)[C@H](CCCCN)NC(=O)[C@@H](NC(=O)[C@H](CCCCN)NC(=O)[C@H](CC(=O)O)NC(=O)[C@H](CCCCN)NC(=O)[C@H](CC(C)C)NC(=O)[C@@H](N)CO)C(C)C)C(=O)N[C@@H](CCC(N)=O)C(=O)N[C@H](C(=O)N[C@@H](Cc1c[nH]c2ccccc12)C(=O)N[C@@H](CCCCN)C(=O)N[C@@H](C)C(=O)N[C@@H](CCCCN)C(=O)N[C@@H](Cc1ccccc1)C(N)=O)[C@@H](C)O` [SLKDKVKSMGEKLKQYIQTWKAKF]: the MIC was 1.1 µM (≈ 3.17 µg/mL) in assay [1]; ≥ 35 µM in assay [2]; 0.3 µM (≈ 0.865 µg/mL) in assay [3]; > 35 µM in assay [4]; 4.4 µM (≈ 12.7 µg/mL) in assay [5]; 4.4 µM (≈ 12.7 µg/mL) in the assay on Escherichia coli MH1.
As for `CSCC[C@H](NC(=O)[C@H](CO)NC(=O)[C@H](C)NC(=O)[C@H](Cc1c[nH]c2ccccc12)NC(=O)[C@@H](N)CO)C(=O)N[C@@H](C)C(=O)N[C@@H](CCCCN)C(=O)N[C@@H](CCCCN)C(=O)N[C@@H](CC(C)C)C(=O)N[C@@H](CCCCN)C(=O)N[C@@H](CCC(=O)O)C(=O)N[C@@H](Cc1ccc(O)cc1)C(=O)N[C@@H](CCSC)C(=O)N[C@@H](CCC(=O)O)C(=O)N[C@@H](CCCCN)C(=O)N[C@@H](CC(C)C)C(=O)N[C@@H](CCCCN)C(=O)N[C@@H](CCC(N)=O)C(=O)N[C@@H](CCCN=C(N)N)C(=O)N[C@@H](C)C(N)=O` [SWASMAKKLKEYMEKLKQRA], the MIC in assay [1] was 2.9 µM (≈ 7.04 µg/mL); in assay [2], 23 µM (≈ 55.8 µg/mL); in assay [3] it was 0.7 µM (≈ 1.7 µg/mL); in assay [4], > 45 µM; in assay [5] it was 23 µM (≈ 55.8 µg/mL); in the assay on Escherichia coli MH1 it was 28 µM (≈ 67.9 µg/mL).

These data come from DBAASP.
